Patent US20220144775A1, “HYDRAZIDE COMPOUND AND KINASE INHIBITOR” (NISSAN CHEMICAL CORPORATION, priority 2019, published 2022)

Tested on: colon organoid
Assay: Mouse colon organoid culture
Assay type: cell-based
Settings: day 21 of culture, 10 μM
Protocol: 7-Week-old male C57BL/6N mice were purchased from CHARLES RIVER LABORATORIES JAPAN, INC. After the acclimation period, the small intestine and colon were isolated under anesthesia. Crypts were collected from the excised small intestine and colon according to the protocol of IntestiCult (trade mark) Organoid Growth Medium. To be specific, the inside of the intestine was washed with 1 mL of cold PBS, then incised vertically, and washed 3 times with 1 mL of cold PBS. The intestine was transferred to a 10 cm petri dish filled with cold PBS, washed thoroughly again, and transferred to a 50 mL tube containing 15 mL of cold PBS while cutting into 2 mm pieces. […] The number of crypts contained in 10 μL of the suspension was counted under a microscope to determine the concentration, and the mixture was dispensed into a 15 mL tube at 800 crypts/tube, and centrifuged at 4° C., 200 g×5 min. […] Organoids were image-analyzed over time by Cell3iMager duos (SCREEN Holdings Co., Ltd.). For image analysis, the number of crypts having a diameter of 30-200 μm was counted as the number of seeded crypts on the first day of culture, and then those grown to 70 μm or more over time were counted as organoids, and the organoid formation rate from the crypts was calculated. At that time, the average diameter of the organoids measured at the same time was calculated. […]

CC/C(=N\NC(=O)C(C)Nc1cncc(F)c1)c1ccc(O)c(C)c1O (centres unmarked) [A-007]
formation rate (%) (DMSO 14): 49%
average diameter (μm) (DMSO 207): 251 μm
